Laboratory results taken from patent EP0569777A2 (Bayer Corporation, priority 1992, dated 1993).
Where a SMILES comes first, the peptide text is derived from it. [ ]: non-standard residue; d: D form. The star is where a group is joined. Sta = CC(C)C[C@H](N)[C@@H](O)CC(=O)O; Isovaleryl = CC(C)CC(=O)*

Legend:
[1] = target: human cathepsin D (human liver, Cal Biochem, catalog # 219401) (Homo sapiens, UniProt P07339); experiment: N-dansyl peptide (SEQ ID NO: 7) peptidase assay with HPLC detection, cathepsin D; type: biochemical; conditions: pepstatin A 213 uM; cathepsin D 2.8 ug/ml, N-Dansyl-peptide 24 uM, pH 5.0, 37 C; Figure 10
Procedure: Reactions (30 ul) were initiated at 37 C by enzyme/inhibitor addition thereby achieving the following t=0 component concentrations: Cathepsin D (2.8 ug/ml), or P-2 enzyme from figure 6 (17.5 ug/ml), N-Dansyl-peptide (24 uM), captopril (0.3 mM) in a cocktail buffer comprising 130 mM in each of acetate, Mes and Tris pH 5.0. Samples contained either pepstatin A (213 uM in 3% v/v final methanol) or an equivalent final concentration of methanol only. At 0, 2, 4, 8 and 24hr, reactions were terminated by addition of 12 % (v/v) TFA (10 ul) and subject to HPLC analysis according to example 2 and 3.
• i) Incubations. […] Incubation with ion-exchange fractions was performed at 37°C for 24 hrs, after which reactions were terminated by adjusting to 3% (v/v) final in TFA. • ii) HPLC quantification of proteolytic products. HPLC analysis was performed using a Hewlet-Packard HP1090 complete with binary solvent delivery, heated column compartment, and auto injector.

[2] = target: human brain P-2 enzyme (peak B), aspartic protease identified as cathepsin D (Homo sapiens, UniProt P07339); experiment: Immunoblot assay of holo-APP 695 degradation by P-2 enzyme (peak B, 15-25 kDa gel filtration region); type: biochemical; conditions: 100 uM pepstatin A in DMSO; P-2 enzyme 2.54 ug/ml, APP 168 nM, Mes buffer pH 6.5, 26 hr, 37°C; Figure 7
Procedure: Reactions (32 ul) were initiated at 37°C by APP addition to achieve the following initial component conditions: P-2 enzyme (2.54 ug/ml) fraction from the 15-25 kDa region of gel filtration (Figure 6); APP (168 nM), in 96 mM Mes buffer pH 6.5. Reactions were terminated after 26 hr by addition of 15 ul of 3X sample buffer, and subject to immunoblot analysis using a 1/1000 dilution of the rabbit polyclonal antiserum to the APP C-terminus. […] The effect of incubation of APP for 0hr (lanes 2 and 30) and 26 hr (lanes 3 and 28) are also shown. Lanes 6, 10, 14, 17, 21 and 25 contained enzyme alone. Lanes 4, 8, 12, 19, 23, and […] contained the C-100 standard. Prestained molecular weight markers are present in lanes 1 and 29. The 18 and 28 kDa C-terminal product fragments are located with arrows.
ii) Solubilization. […] Absorbance of column effluent was monitored at 280 nm using a Pharmacia UV-M detector and a Kippen-zonen chart recorder. […] In the initial studies, eluted fractions were monitored for A280 nm, total protein (Bradford assay), and peptidase activity (as decsribed in Examples 2 and 3). […] Fractions were monitored for A 280 nm, total protein (Bradford assay), peptidase activity, and activity for C-terminal processing of recombinant APP. […]

Chain of human cathepsin D (human liver, Cal Biochem, catalog # 219401) (P07339 with tags, fused parts or gaps): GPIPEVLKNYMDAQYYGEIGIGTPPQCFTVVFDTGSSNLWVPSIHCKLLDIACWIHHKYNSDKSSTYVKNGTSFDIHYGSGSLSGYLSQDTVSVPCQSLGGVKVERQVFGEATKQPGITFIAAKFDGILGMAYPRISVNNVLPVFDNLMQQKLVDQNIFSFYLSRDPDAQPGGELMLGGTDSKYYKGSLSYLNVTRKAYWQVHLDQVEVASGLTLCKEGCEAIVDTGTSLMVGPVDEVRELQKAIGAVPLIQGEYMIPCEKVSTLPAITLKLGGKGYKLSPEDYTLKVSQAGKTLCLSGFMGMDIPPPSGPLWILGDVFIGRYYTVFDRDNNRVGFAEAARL
Chain of human brain P-2 enzyme (peak B), aspartic protease identified as cathepsin D (P07339 with tags, fused parts or gaps): as above

SMILES: CC(C)CC(=O)N[C@H](C(=O)N[C@H](C(=O)N[C@@H](CC(C)C)[C@@H](O)CC(=O)N[C@@H](C)C(=O)N[C@@H](CC(C)C)[C@@H](O)CC(=O)O)C(C)C)C(C)C [pepstatin A] (Isovaleryl-VV[Sta]A[Sta]-OH)
- Inhibition of peptidase reaction catalyzed by Cathepsin D [1]: inhibited
- Inhibition of peak B APP degrading activity [2]: quantitative inhibition
